The source of these data is patent US20050038118A1, “Treatment” (priority 2003, published 2005).

Test [1] relates to human Rhinovirus (HRV). Description: In vivo Study II: human volunteers pre-treated with CLA, intranasal human Rhinovirus challenge, Jackson Score. On the procedure: The following protocol was used in all of Examples 4 to 10.
76 human volunteers suffering from the common cold were used in the study. 43 subjects were administered conjugated linoleic acid (CLA) and the other 33 subjects were given a placebo. The CLA used contained a 40:60 mixture of cis9, trans11: trans10, cis12 isomers.
The 43 subjects underwent pre-treatment with CLA at a level of 2 g/day for 4 weeks. 33 subjects underwent pre-treatment with placebo (HOSF; high oleic sunflower […]).
(§1) All subjects were inoculated at day 0 by intranasal exposure to human Rhinovirus (HRV) and the two groups were monitored daily for the next 5 days. The effects of the two types of treatment were determined by using the Jackson Score (validated in severity of symptoms) and the effects of the symptoms on its own on day 0-5.
Symptoms were assessed using a Jackson Score validated in severity from 0=absent to 3=very severe.

Test [2] relates to human Rhinovirus (HRV). The test can be described thus: In vivo study: human volunteers pre-treated with CLA, intranasal human Rhinovirus challenge, Jackson Score. To be noted: CLA 1.7 g/day for 4 weeks pre-treatment. On the procedure:
45 human volunteers suffering from the common cold were used in the study. 21 subjects were administered conjugated linoleic acid (CLA) and the other 24 subjects were given a placebo.
The 21 subjects underwent pre-treatment with CLA at a level of 1.7 g/day for 4 weeks. 24 subjects underwent pre-treatment with placebo (HOSF; high oleic sunflower […]).
as §1
Symptoms were assessed using a Jackson Score validated in severity from 0=absent to 3=very severe. The following symptoms were rated:
The primary endpoint for the study was the frequency of clinical colds defined in accordance with the modified Jackson criteria.
Total symptoms of the individuals were checked in the morning (am) and in the afternoon (pm). The results of the test in the afternoon are shown in FIG. 2 and the results of the test in the morning are shown in FIG. 3; both plots are of Total Symptom Score against number of days. In FIGS. 2 and 3, results for the group of people treated with CLA are shown on the left in grey (Series 1) and for people given the placebo are shown on the right in dark grey (Series 2).
The symptoms assessed were sneezing, runny nose, obstruction, stuffiness, sore throat, cough, headache, malaise and chilliness. The total symptom score was determined by adding the scores for the symptoms during the 5 day period. FIG. 4 is a graph showing total symptom score and individual symptoms for the CLA group (light grey bars) and the placebo group (dark grey bars).

The mark [3] stands for this setting: CLA 2 g/day for 4 weeks pre-treatment.

For the substance conjugated linoleic acid [CLA], in the test on human Rhinovirus (HRV) [1] (setting [3]), the “reduction in Jackson cold severity versus placebo” value was “about 12%” and the “reduction in total Jackson score over 5 days versus placebo” value is reported as “about 7%”. In addition, the “average total Jackson score over 5 days” value in the test with human Rhinovirus (HRV) [1] (CLA 2 g/day for 4 weeks pre-treatment, AM and PM, five days post inoculation, placebo 9.30) is 8.72. For the same substance, the “total runny nose score in 5 days” value with human Rhinovirus (HRV) [1] (CLA 2 g/day for 4 weeks pre-treatment, ranking 1-3, AM and PM, five days, placebo 2.14) is given as 2.025. For the same substance, the “total sneezing score in 5 days” value in the test on human Rhinovirus (HRV) [1] (CLA 2 g/day for 4 weeks pre-treatment, ranking 1 to 3, AM and PM, five days, placebo 1.2) was found to be 0.5. Moreover, the “total sore throat score for 5 days” value in the test on human Rhinovirus (HRV) [1] (CLA 2 g/day for 4 weeks pre-treatment, ranking 1 to 3, AM and PM, five days, placebo 3.1) is listed as 2.5. Besides, in the test on human Rhinovirus (HRV) [1] (CLA 2 g/day for 4 weeks pre-treatment, sum of symptom scores during 5 day period, placebo 12.1), the “total symptom score over 5 days” value worked out at 11.3. In addition, in the test on human Rhinovirus (HRV) [1] (CLA 2 g/day for 4 weeks pre-treatment, total score (from 10), AM and PM, five days post inoculation, placebo 1.09), the “Jackson cold severity, average score” value came to 0.975. Also, the volunteers not infected result in the test with human Rhinovirus (HRV) [1] (CLA (40:60 cis9,trans11:trans10,cis12) 2 g/day for 4 weeks pre-treatment, all placebo volunteers infected) is “Seven out of the 43”. The “severity of the common cold (Jackson Score) versus placebo” value in the test on human Rhinovirus (HRV) [2] (at day 2 after HRV inoculation, FIG. 1) is “lower”. Moreover, the “total symptom score (am and pm) versus placebo” value in the test on human Rhinovirus (HRV) [2] (day 2 until the end of the study, FIGS. 2 and 3) is on record as “lower”. In addition, the “severity of the symptoms assessed separately versus placebo” value in the test on human Rhinovirus (HRV) [2] (scores added over 5 day period, FIG. 4) is listed as “very clearly lower”.
